From ChEMBL document CHEMBL5252612, “A novel selective estrogen receptor degrader induces cell cycle arrest in breast cancer via ERα degradation and the autophagy-lysosome pathway” (Bioorg Med Chem, 2023)
Activity calls are given as the source filed them. No cut-off for these calls is given here.

How the values were obtained:
[1] = Induction of cell cycle arrest in tamoxifen-resistant human LCC2 cells assessed as proportion of cells at G1 phase at 10 uM by flow cytometry (reference value: 47.4%); format: functional
[2] = test system: MCF7; test: Induction of cell cycle arrest in human MCF7 cells assessed as proportion of cells at S phase at 5 uM incubated for 24 hrs by flow cytometry (reference value: 27.6%); format: functional
[3] = test system: T47D; test: Induction of autophagy in human T47D cells assessed as upregulation of LAMP2 protein expression at 10 uM incubated for 24 hrs by western blot analysis; format: functional, cell-based
[4] = test system: T47D; test: Inhibition of colony formation in human T47D cells at 1 to 5 uM incubated for 14 days by crystal violet staining based analysis; format: functional, cell-based; conditions: dose 1-5 µM, time 14.0 day
[5] = test system: T47D; test: Induction of autophagy in human T47D cells assessed as increase in LC3 puncta formation at 1 to 10 uM incubated for 24 hrs in presence of chloroquine by immunofluorescence assay; format: functional, cell-based; conditions: dose 1-10 µM
[6] = test system: T47D; test: Induction of cell cycle arrest in human T47D cells assessed as proportion of cells at G1 phase at 5 uM incubated for 24 hrs by flow cytometry (reference value: 66.6%); format: functional
[7] = Induction of cell cycle arrest in tamoxifen-resistant human LCC2 cells assessed as proportion of cells at S phase at 1 uM by flow cytometry (reference value: 28.4%); format: functional
[8] = test system: LCC2; test: Inhibition of colony formation in tamoxifen-resistant human LCC2 cells at 1 uM incubated for 14 days by crystal violet staining based analysis; format: functional, cell-based; conditions: time 14.0 day
[9] = test system: T47D; test: Induction of cell cycle arrest in human T47D cells assessed as proportion of cells at G1 phase at 1 uM incubated for 24 hrs by flow cytometry (reference value: 66.6%); format: functional
[10] = test system: MCF7; test: Induction of cell cycle arrest in human MCF7 cells assessed as proportion of cells at G1 phase at 5 uM incubated for 24 hrs by flow cytometry (reference value: 46.3%); format: functional
[11] = test system: T47D; test: Inhibition of colony formation in human T47D cells at 10 uM incubated for 14 days in presence of autophagy inhibitor, 3-MA by crystal violet staining based analysis; format: functional, cell-based; conditions: time 14.0 day
[12] = test system: MCF7; test: Induction of apoptosis and necrosis in human MCF7 cells incubated for 48 hrs by AnnexinV-FITC/PI staining based flow cytometry (reference value: 7.03%); format: functional
[13] = test system: MCF7; test: Induction of cell cycle arrest in human MCF7 cells assessed as proportion of cells at S phase at 1 uM incubated for 24 hrs by flow cytometry (reference value: 27.6%); format: functional
[14] = test system: T47D; test: Induction of cell cycle arrest in human T47D cells overexpressing MYC assessed as proportion of cells at S phase at 10 uM incubated for 24 hrs by flow cytometry (reference value: 24.2%); format: functional
[15] = test system: T47D; test: Induction of cell cycle arrest in human T47D cells assessed as proportion of cells at S phase at 5 uM incubated for 24 hrs by flow cytometry (reference value: 15.3%); format: functional
[16] = molecular target: T1, Estrogen receptor (Homo sapiens) (UniProt P03372); test: Induction of ER-alpha degradation in human T47D cells assessed as decrease in ER-alpha protein expression in presence of autophagy inhibitor, 3-MA of by western blot analysis; format: cell-based
T1 sequence (whole entry): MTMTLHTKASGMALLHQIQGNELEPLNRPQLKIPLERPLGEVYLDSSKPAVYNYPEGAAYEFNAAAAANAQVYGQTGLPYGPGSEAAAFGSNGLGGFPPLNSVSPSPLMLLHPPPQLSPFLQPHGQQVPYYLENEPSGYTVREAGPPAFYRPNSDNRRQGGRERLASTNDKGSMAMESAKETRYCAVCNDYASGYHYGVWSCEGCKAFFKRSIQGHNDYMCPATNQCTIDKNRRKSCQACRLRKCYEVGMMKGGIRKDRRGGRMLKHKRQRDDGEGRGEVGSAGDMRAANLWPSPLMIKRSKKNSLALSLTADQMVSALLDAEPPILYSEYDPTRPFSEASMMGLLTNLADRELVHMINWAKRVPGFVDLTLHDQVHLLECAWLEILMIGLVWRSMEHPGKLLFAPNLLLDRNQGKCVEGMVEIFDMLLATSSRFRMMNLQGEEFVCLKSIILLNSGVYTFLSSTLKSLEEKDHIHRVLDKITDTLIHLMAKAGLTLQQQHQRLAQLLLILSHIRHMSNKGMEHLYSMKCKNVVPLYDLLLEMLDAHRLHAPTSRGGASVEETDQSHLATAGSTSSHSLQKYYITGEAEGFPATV

[17] = molecular target: T1, Estrogen receptor (Homo sapiens); test: Induction of ER-alpha degradation in human T47D cells assessed as reduction in ER-alpha stability at 10 uM incubated for 3 to 9 hrs in presence of protein synthesis inhibitor, CHX by CHX chase assay based western blot analysis; format: cell-based; conditions: time 3-9 hrs
[18] = test system: MCF7; test: Antitumor activity against human MCF7 cells xenografted in BALB/c nude mouse assessed as reduction in Ki67 expression in tumor at 2 to 4 mg/kg, ip administered every other day by immunohistochemistry; format: functional, organism-based; conditions: dose 2-4 mg/kg
[19] = test system: T47D; test: Induction of autophagy in human T47D cells assessed as increase in LC3 protein expression at 5 to 10 uM incubated for 24 hrs in presence of chloroquine by western blot analysis; format: functional, cell-based; conditions: dose 5-10 µM
[20] = test system: T47D; test: Induction of cell cycle arrest in human T47D cells assessed as proportion of cells at G2 phase at 5 uM incubated for 24 hrs by flow cytometry (reference value: 24.4%); format: functional
[21] = Induction of cell cycle arrest in tamoxifen-resistant human LCC2 cells assessed as proportion of cells at G2 phase at 1 uM by flow cytometry (reference value: 23.7%); format: functional
[22] = test system: MCF7; test: Inhibition of colony formation in human MCF7 cells at 1 to 10 uM incubated for 14 days by crystal violet staining based analysis; format: functional, cell-based; conditions: dose 1-10 µM, time 14.0 day
[23] = test system: T47D; test: Induction of cell cycle arrest in human T47D cells transfected with empty vector assessed as proportion of cells at S phase at 10 uM incubated for 24 hrs by flow cytometry (reference value: 25.9%); format: functional
[24] = test system: T47D; test: Induction of autophagic flux in human T47D cells transfected with mCherry-EGFP-LC3 assessed as increase in red fluorescence at 1 to 10 uM incubated for 24 hrs by confocal microscopic analysis; format: functional, cell-based; conditions: dose 1-10 µM
[25] = test system: T47D; test: Anticancer activity against ER-alpha positive human T47D cells assessed as reduction in cell viability at 10 uM measured after 48 hrs in presence of autophagy inhibitor, 3-MA by CCK8 assay; format: functional, cell-based
[26] = test system: T47D; test: Induction of cell cycle arrest in human T47D cells assessed as proportion of cells at S phase at 10 uM incubated for 24 hrs in presence of autophagy inhibitor, 3-MA by flow cytometry (reference value: 21.4%); format: functional
[27] = test system: MCF7; test: Induction of apoptosis in human MCF7 cells at 10 uM incubated for 48 hrs by TUNEL assay; format: functional, cell-based
[28] = test system: T47D; test: Induction of autophagy in human T47D cells overexpressing ESR1 assessed as increase in autophagosome number by measuring LC3 puncta formation by immunofluorescence assay; format: functional, cell-based
[29] = test system: T47D; test: Induction of cell cycle arrest in human T47D cells assessed as proportion of cells at G2 phase at 10 uM incubated for 24 hrs in presence of autophagy inhibitor, 3-MA by flow cytometry (reference value: 18.2%); format: functional

With COc1ccc(N(CC(F)(F)F)S(=O)(=O)C2CC3OC2C(c2ccc(OCCN4CCCC4)cc2)=C3c2ccc(O)cc2)cc1 (centres undefined) the Activity [1] was 71.6%, the Activity [2] was 15% and the Activity [3] was “Active”. For the same compound, the inhibition [4] was “Active”, the Activity [5] was “Active” and the Activity [6] was 76.8%. The Activity [7] was 19.6%, the inhibition [8] was “Active” and the Activity [9] was 71.1%. For the same compound, the Activity [10] was 65.1%, the inhibition [11] was “inactive” and the Activity [12] was 46.45%. It also gave an Activity [13] of 15.7%, an Activity [14] of 22.6% and an Activity [15] of 9.6%. The Activity [16] was “Active”, the Activity [17] was “Active” and the Activity [18] was “Active”. For the same compound, the Activity [19] was “Active”, the Activity [20] was 16.2% and the Activity [21] was 16.6%. For the same compound, the inhibition [22] was “Active”, the Activity [23] was 22.8% and the Activity [24] was “Active”. For the same compound, the Activity [25] was “inactive”, the Activity [26] was 14.5% and the Activity [27] was “Active”. The Activity [28] was “Active” and the Activity [29] was 19.3%.
